Read-outs that look alike come from different tables or passages of the source.
Experiments:
[1] = tested on: p110β/p110α; experiment: HTRF biochemical assay, class I PI3K isoforms (Reaction Biology Corp.): fold selectivity p110β/p110α; details: fold form selectivity
Text: (§1) Fold form selectivity inhibition data against class I PI3K isoforms, as determined using a HTRF biochemical assay conducted at Reaction Biology Corp., is listed below.

[2] = tested on: p110β/p110γ; experiment: HTRF biochemical assay, class I PI3K isoforms (Reaction Biology Corp.): fold selectivity p110β/p110γ; details: fold form selectivity
Text: as §1

[3] = tested on: p110δ/p110α; experiment: HTRF biochemical assay, class I PI3K isoforms (Reaction Biology Corp.): fold selectivity p110δ/p110α; details: fold form selectivity
[4] = tested on: p110δ/p110γ; experiment: HTRF biochemical assay, class I PI3K isoforms (Reaction Biology Corp.): fold selectivity p110δ/p110γ; details: fold form selectivity
[5] = Rodent pharmacokinetics: oral bioavailability and clearance, plasma PK; type: in vivo, mouse
Procedure: Formulation: 10% DMSO, 90% Saline Dosing: 10 mg/kg P.O. and 5 mg/kg I.V.
• Species=male mouse; • Strain=Balb/c; • 18 male mice were divided into two groups Group 1 (3 mg/kg; I.V.), Group 2 (10 mg/kg; P.O.) with each group comprising nine mice; • Blood samples (approximately 60 μL) were collected from retro orbital plexus under light isoflurane anesthesia such that the samples were obtained at pre-dose, 0.08, 0.25, 0.5, 1, 2, 4, 8 and 24 hr (I.V.) and pre-dose, 0.25, 0.5, 1, 2, 4, 6, 8 and 24 hr (P.O.); • The blood samples were collected from a set of three mice at each time point in labeled micro centrifuge tube containing K2EDTA as anticoagulant; • Plasma samples were separated by centrifugation of whole blood and stored below −70° C. until bioanalysis; • All samples were processed for analysis by protein precipitation using acetonitrile (ACN) and analyzed with fit for purpose LC/MS/MS method (LLOQ: 2.02 ng/mL); • Pharmacokinetic parameters were calculated using the non-compartmental analysis tool of Phoenix WinNonlin (Version 6.3). Formulation: Animals in Group 1 were administered intravenously with Example B solution formulation in 20% propylene glycol, 50% of PEG 400 and 30% of 20% βCD in water via tail vein at a dose of 3 mg/kg. Animals in Group 2 were administered with oral solution formulation of Example B in 20% propylene glycol, 50% of PEG 400 and 30% of 20% HPβCD in water at a dose of 10 mg/kg; Dosing: 10 mg/kg P.O. and 3 mg/kg I.V.
• Species=male mouse; • Strain=Balb/c; • 18 male mice were divided into two groups Group 1 (3 mg/kg; I.V.), Group 2 (10 mg/kg; P.O.) with each group comprising nine mice; • Blood samples (approximately 60 μL) were collected from retro orbital plexus under light isoflurane anesthesia such that the samples were obtained at pre-dose, 0.08, 0.25, 0.5, 1, 2, 4, 8 and 24 hr (I.V.) and pre-dose, 0.25, 0.5, 1, 2, 4, 6, 8 and 24 hr (P.O.); • The blood samples were collected from a set of three mice at each time point in labeled micro centrifuge tube containing K2EDTA as anticoagulant; • Plasma samples were separated by centrifugation of whole blood and stored below −70° C. until bioanalysis; • All samples were processed for analysis by protein precipitation using acetonitrile (ACN) and analyzed with fit for purpose LC/MS/MS method (LLOQ: 2.47 ng/mL); • Pharmacokinetic parameters were calculated using the non-compartmental analysis tool of Phoenix WinNonlin (Version 6.3). Formulation: Animals in Group 1 were administered intravenously with Example G solution formulation in 5% NMP, 5% solutol HS-15 in 90% HPβCD solution (20% HPβCD in RO water) at 3 mg/kg dose. Animals in Group 2 were administered orally with 10 mg/kg solution formulation of Example G in 5% NMP, 5% solutol HS-15 in 90% HPβCD solution (20% HPβCD in RO water) Dosing: 10 mg/kg P.O. and 3 mg/kg I.V.
• Species=male mouse; • Strain=CD1; • n=3 male mice per time point per route; • Terminal blood sampling at 8 time points (5 min, 10 min, 0.5 hr, 1 hr, 3 hr, 6 hr, 8 hr and, 24 hr); • Collection of plasma, bio-analysis and report of pharmacokinetic parameters. Formulation: 10% DMSO, 90% Saline Dosing: 10 mg/kg P.O. and 5 mg/kg I.V.

[6] = in vivo, iv, male mouse, I.V. (5 mg/kg CD1: Example A, comparative; 3 mg/kg Balb/c: Examples B, G), mesylate salt, read-out: Clearance

Structure (SMILES)	Fold IC50 p110β/p110α [1]	Fold IC50 p110β/p110γ [2]	Fold IC50 p110δ/p110α [3]	Fold IC50 p110δ/p110γ [4]	F ([5]; male, CD1, mouse, in vivo) [%]	clearance ([5]; male, mouse, in vivo, iv) [mL/min/kg]	clearance [5, 6] [mL/min/kg]	F ([5]; male Balb/c mouse, PO 10 mg/kg vs IV 3 mg/kg, 20% propylene glycol, 50% PEG 400, 30% of 20% HPβCD in water, mesylate salt) [%]	clearance ([5]; male, mouse, in vivo, summary table, mice, mesylate salts, read-out: Clearance) [mL/min/kg]	F ([5]; male Balb/c mouse, PO 10 mg/kg vs IV 3 mg/kg, 5% NMP, 5% solutol HS-15 in 90% HPβCD solution, mesylate salt) [%]
c1cc(-c2nc(N3CCOCC3)c3oc4ncc(CN5CC6CC[C@H](C5)O6)cc4c3n2)c2cc[nH]c2c1 (stereo in doubt) [Example C, 4-(1H-Indol-4-yl)-6-(morpholin-4-yl)-12-{8-oxa-3-azabicyclo[3.2.1]octan-3-ylmethyl}-8-oxa-3,5,10-triazatricyclo[7.4.0.0^2,7]trideca-1(13),2(7),3,5,9,11-hexaene]	* (* = ≥10× ≥ 50×)	** (** = >50×)	** (** = >50×)	** (** = >50×)						
c1cc(-c2nc(N3CCOCC3)c3oc4ncc(CN5C[C@@H]6C[C@H]5CO6)cc4c3n2)c2cc[nH]c2c1 [Example A, 4-(1H-Indol-4-yl)-6-(morpholin-4-yl)-12-[(1S,4S)-2-oxa-5-azabicyclo[2.2.1]heptan-5-ylmethyl]-8-oxa-3,5,10-triazatricyclo[7.4.0.0^2,7]trideca-1(13),2(7),3,5,9,11-hexaene]					73.77	21				
c1cc(-c2nc(N3CCOCC3)c3oc4ncc(CN5CCC6(CC5)COC6)cc4c3n2)c2cc[nH]c2c1 [Example B, 4-(1H-Indol-4-yl)-6-(morpholin-4-yl)-12-{2-oxa-7-azaspiro[3.5]nonan-7-ylmethyl}-8-oxa-3,5,10-triazatricyclo[7.4.0.0^2,7]trideca-1(13),2(7),3,5,9,11-hexaene]	** (** = >50×)	** (** = >50×)	** (** = >50×)	** (** = >50×)			33	74	33	
c1cc(-c2nc(N3CCOCC3)c3oc4ncc(CN5CCC56COC6)cc4c3n2)c2cc[nH]c2c1 [Example G, 4-(1H-indol-4-yl)-6-(morpholin-4-yl)-12-{6-oxa-1-azaspiro[3.3]heptan-1-ylmethyl}-8-oxa-3,5,10-triazatricyclo[7.4.0.0^2,7]trideca-1(13),2(7),3,5,9,11-hexaene]	* (* = ≥10× ≥ 50×)	** (** = >50×)	** (** = >50×)	** (** = >50×)			26			30

More lines, main results first:

Fold IC50 p110β/p110α [1]	Fold IC50 p110β/p110γ [2]	Fold IC50 p110δ/p110α [3]	Fold IC50 p110δ/p110γ [4]	F ([5]; male, CD1, mouse, in vivo) [%]	clearance ([5]; male, mouse, in vivo, iv) [mL/min/kg]	Structure (SMILES)	clearance [5, 6] [mL/min/kg]	F ([5]; male Balb/c mouse, PO 10 mg/kg vs IV 3 mg/kg, 20% propylene glycol, 50% PEG 400, 30% of 20% HPβCD in water, mesylate salt) [%]	clearance ([5]; male, mouse, in vivo, summary table, mice, mesylate salts, read-out: Clearance) [mL/min/kg]	F ([5]; male Balb/c mouse, PO 10 mg/kg vs IV 3 mg/kg, 5% NMP, 5% solutol HS-15 in 90% HPβCD solution, mesylate salt) [%]
** (** = >50×)	** (** = >50×)	** (** = >50×)	** (** = >50×)			CN1CCC2(CCN(Cc3cnc4oc5c(N6CCOCC6)nc(-c6cccc7[nH]ccc67)nc5c4c3)CC2)C1 [Example D, 4-(1H-Indol-4-yl)-12-({2-methyl-2,8-diazaspiro[4.5]decan-8-yl}methyl)-6-(morpholin-4-yl)-8-oxa-3,5,10-triazatricyclo[7.4.0.0^2,7]trideca-1(13),2(7),3,5,9,11-hexaene]				
** (** = >50×)	** (** = >50×)	** (** = >50×)	** (** = >50×)			CN1CCC2(CCN(Cc3cnc4oc5c(N6CCOCC6)nc(-c6cccc7[nH]ccc67)nc5c4c3)C2)C1 (stereo not drawn) [Example E, 4-(1H-Indol-4-yl)-12-({7-methyl-2,7-diazaspiro[4.4]nonan-2-yl}methyl)-6-(morpholin-4-yl)-8-oxa-3,5,10-triazatricyclo[7.4.0.0^2,7]trideca-1(13),2(7),3,5,9,11-hexaene]				
